Assays:
[1] = Antiproliferative activity against human MCF7 cells after 48 hrs by MTT assay; format: functional, cell-based; conditions: MCF7, 48 h
[2] = Antiproliferative activity against human MDA-MB-231 cells after 48 hrs by MTT assay; format: functional, cell-based; conditions: MDA-MB-231, 48 h
[3] = Antiproliferative activity against human mammary epithelial cells after 48 hrs by MTT assay; format: cell-based, Epithelial cell
[4] = tested on: MDA-MB-231; test: Effect on Cdk2 mRNA expression in human MDA-MB-231 cells assessed as ratio of Cdk2 to GAPDH expression level at 5 uM after 24 hrs by RT-PCR method (reference value: 0.26); format: functional
[5] = tested on: MDA-MB-231; test: Effect on cyclin E mRNA expression in human MDA-MB-231 cells assessed as ratio of cyclin E to GAPDH expression level at 5 uM after 24 hrs by RT-PCR method (reference value: 0.13); format: functional
[6] = tested on: MDA-MB-231; test: Induction of apoptosis in human MDA-MB-231 cells assessed as necrotic cells at 5 uM after 24 hrs by Annexin V-FITC/propidium iodide staining based flow cytometry (reference value: 1.3%); format: functional
[7] = tested on: MCF7; test: Induction of apoptosis in human MCF7 cells assessed as early apoptotic cells at 5 uM after 24 hrs by Annexin V-FITC/propidium iodide staining based flow cytometry (reference value: 1.6%); format: functional
[8] = tested on: MDA-MB-231; test: Effect on p21 mRNA expression in human MDA-MB-231 cells assessed as ratio of p21 to GAPDH expression level at 5 uM after 24 hrs by RT-PCR method (reference value: 0.02); format: functional
[9] = tested on: MDA-MB-231; test: Effect on p27 mRNA expression in human MDA-MB-231 cells assessed as ratio of p27 to GAPDH expression level at 5 uM after 24 hrs by RT-PCR method (reference value: 0.23); format: functional
[10] = tested on: MDA-MB-231; test: Effect on Bid gene expression in human MDA-MB-231 cells assessed as ratio of Bid to beta-actin expression level at 5 uM after 24 hrs by RT-PCR method (reference value: 0.17); format: functional
[11] = tested on: MDA-MB-231; test: Induction of apoptosis in human MDA-MB-231 cells assessed as late apoptotic cells at 5 uM after 24 hrs by Annexin V-FITC/propidium iodide staining based flow cytometry (reference value: 1.8%); format: functional
[12] = tested on: MDA-MB-231; test: Effect on cyclin D1 mRNA expression in human MDA-MB-231 cells assessed as ratio of cyclin D1 to GAPDH expression level at 5 uM after 24 hrs by RT-PCR method (reference value: 0.71); format: functional
[13] = organism: Homo sapiens; test: Inhibition of Akt in human MDA-MB-231 cells assessed as ratio of phosphorylated GSK-3beta to GAPDH expression level at 2 uM after 48 hrs by immunoblot analysis (reference value: 0.14 to 1.50); format: cell-based
[14] = tested on: MCF7; test: Induction of apoptosis in human MCF7 cells assessed as late apoptotic cells at 5 uM after 24 hrs by Annexin V-FITC/propidium iodide staining based flow cytometry (reference value: 2.3%); format: functional
[15] = tested on: MDA-MB-231; test: Effect on p53 gene expression in human MDA-MB-231 cells assessed as ratio of p53 to beta-actin expression level at 5 uM after 24 hrs by RT-PCR method (reference value: 0.22); format: functional
[16] = Cell cycle arrest in human MCF7 cells assessed as accumulation at G0/G1 phase at 5 uM after 24 hrs by propidium iodide staining based flow cytometry (reference value: 83.25%); format: functional
[17] = tested on: MDA-MB-231; test: Ratio of Bcl-2 to Bax gene expression in human MDA-MB-231 cells at 5 uM after 24 hrs by RT-PCR method (reference value: 0.03); format: functional
[18] = tested on: MCF7; test: Induction of apoptosis in human MCF7 cells assessed as necrotic cells at 5 uM after 24 hrs by Annexin V-FITC/propidium iodide staining based flow cytometry (reference value: 3.7%); format: functional
[19] = Cell cycle arrest in human MCF7 cells assessed as accumulation at S phase at 5 uM after 24 hrs by propidium iodide staining based flow cytometry (reference value: 4.23%); format: functional
[20] = Safety index, ratio of compound IC50 to colchicine IC50 for human mammary epithelial cells; format: ADME, cell-based, Epithelial cell; conditions: read-out: Ratio IC50
[21] = organism: Homo sapiens; test: Inhibition of Akt in human MDA-MB-231 cells assessed as ratio of phosphorylated GSK-3beta to GAPDH expression level at 5 uM after 48 hrs by immunoblot analysis (reference value: 0.14 to 1.50); format: cell-based
[22] = organism: Homo sapiens; test: Inhibition of Akt in human MDA-MB-231 cells assessed as ratio of phosphorylated Akt to GAPDH expression level at 10 uM after 48 hrs by immunoblot analysis (reference value: 0.33 to 0.81); format: cell-based
[23] = tested on: MDA-MB-231; test: Inhibition of Akt in human MDA-MB-231 cells after 48 hrs by ELISA; format: cell-based
[24] = tested on: MDA-MB-231; test: Induction of apoptosis in human MDA-MB-231 cells assessed as early apoptotic cells at 5 uM after 24 hrs by Annexin V-FITC/propidium iodide staining based flow cytometry (reference value: 0.5%); format: functional
[25] = organism: Homo sapiens; test: Inhibition of Akt in human MDA-MB-231 cells assessed as ratio of phosphorylated Akt to GAPDH expression level at 5 uM after 48 hrs by immunoblot analysis (reference value: 0.33 to 0.81); format: cell-based
[26] = Cell cycle arrest in human MCF7 cells assessed as accumulation at sub-G1 phase at 5 uM after 24 hrs by propidium iodide staining based flow cytometry (reference value: 3.58%); format: functional
[27] = organism: Homo sapiens; test: Inhibition of Akt in human MDA-MB-231 cells assessed as ratio of phosphorylated Akt to GAPDH expression level at 2 uM after 48 hrs by immunoblot analysis (reference value: 0.33 to 0.81); format: cell-based
[28] = tested on: MDA-MB-231; test: Effect on Cdk6 mRNA expression in human MDA-MB-231 cells assessed as ratio of Cdk6 to GAPDH expression level at 5 uM after 24 hrs by RT-PCR method (reference value: 1.37); format: functional
[29] = tested on: MDA-MB-231; test: Inhibition of Akt in human MDA-MB-231 cells assessed as reduction in GSK-3beta phosphorylation after 48 hrs by immunoblot analysis; format: cell-based
[30] = organism: Homo sapiens; test: Inhibition of Akt in human MDA-MB-231 cells assessed as ratio of phosphorylated GSK-3beta to GAPDH expression level at 10 uM after 48 hrs by immunoblot analysis (reference value: 0.14 to 1.50); format: cell-based
[31] = Cell cycle arrest in human MCF7 cells assessed as accumulation at G2/M phase at 5 uM after 24 hrs by propidium iodide staining based flow cytometry (reference value: 9.29%); format: functional
[32] = Homo sapiens, Epithelial cell, 48 h, read-out: IC50

CCOC(=O)/C(=C/c1ccccc1)CN1C(=O)[C@@H](OC)[C@H]1c1ccc(Cl)cc1
IC50 [1]: 12.7 µM
IC50 [2]: 11.1 µM
IC50 ([3]; epithelial cell): Non-Toxic

COC(=O)/C(=C/c1ccccc1)CN1C(=O)[C@@H](OC)[C@H]1c1ccc(Cl)cc1Cl
IC50 [2]: 19 µM
IC50 [3, 32]: 70 µM

COC(=O)/C(=C/c1ccccc1)CN1C(=O)[C@@H](OC)[C@H]1c1cccc(C(F)(F)F)c1
IC50 [2]: 18.2 µM
IC50 [3, 32]: 71.8 µM

CO[C@@H]1C(=O)N(C/C(C#N)=C/c2ccccc2)[C@@H]1c1ccc(Br)cc1
IC50 ([3]; epithelial cell): Non-Toxic

CCOC(=O)/C(=C/c1ccccc1)CN1C(=O)[C@@H](OC)[C@H]1c1cccc([N+](=O)[O-])c1
IC50 [1]: 19.9 µM
IC50 [2]: 14.4 µM
IC50 ([3]; epithelial cell): Non-Toxic

CO[C@@H]1C(=O)N(C/C(C#N)=C/c2ccccc2)[C@@H]1c1ccc(F)cc1
Ratio [4]: 0.32
Ratio [5]: 0.2
Activity [6]: 1.6%
Activity [7]: 1.7%
Ratio [8]: 0.09
Ratio [9]: 0.33
Ratio [10]: 0.39
Activity [11]: 4.7%
Ratio [12]: 1.59
Ratio [13]: 0.42
Activity [14]: 2.3%
IC50 [1]: 8.31 µM
Ratio [15]: 0.21
Activity [16]: 83.2%
Ratio [17]: 0.03
Activity [18]: 6.9%
Activity [19]: 5.15%
selectivity ratio [20]: 10
Ratio [21]: 0.22
Ratio [22]: 0.58
inhibition [23]: Dose-dependent effect
Activity [24]: 1.1%
Ratio [25]: 0.45
Activity [26]: 2.83%
IC50 [2]: 9.24 µM
Ratio [27]: 0.42
Ratio [28]: 1.3
inhibition [29]: Dose-dependent effect
IC50 ([3]; epithelial cell): Non-Toxic
Ratio [30]: 0.2
Activity [31]: 9.68%

CO[C@@H]1C(=O)N(C/C(C#N)=C/c2ccccc2)[C@@H]1c1ccc2c(c1)OCO2
IC50 [1]: 10.6 µM
IC50 [3, 32]: > 100 µM

COC(=O)/C(=C/c1ccccc1)CN1C(=O)[C@@H](OC)[C@H]1c1ccccc1
IC50 [1]: 12.9 µM
IC50 [2]: 11.1 µM
IC50 ([3]; epithelial cell): Non-Toxic

COc1ccc(OC)c([C@@H]2[C@H](OC)C(=O)N2C/C(C#N)=C/c2ccccc2)c1
IC50 [2]: 23.4 µM
IC50 [3, 32]: > 100 µM

CO[C@@H]1C(=O)N(C/C(C#N)=C/c2ccccc2)[C@@H]1c1ccc(Cl)cc1
IC50 [1]: 19.8 µM
IC50 [2]: 18 µM
IC50 ([3]; epithelial cell): Non-Toxic

COC(=O)/C(=C/c1ccccc1)CN1C(=O)[C@@H](OC)[C@H]1c1ccc(Cl)cc1
IC50 [1]: 15.2 µM
IC50 [2]: 15.6 µM
IC50 [3, 32]: 37.9 µM

CO[C@@H]1C(=O)N(C/C(C#N)=C/c2ccccc2)[C@@H]1c1cccc(C)c1
IC50 [1]: 11.3 µM
IC50 [2]: 11.1 µM
IC50 ([3]; epithelial cell): Non-Toxic

— ChEMBL document CHEMBL3872232, “2-Azetidinones: Synthesis and biological evaluation as potential anti-breast cancer agents” (Eur J Med Chem, 2016)
